This is an account of results in patent US9504685B2, “Method for treating a pulmonary hypertension condition” (Gilead Sciences, Inc., priority 2006, dated 2016).

This series relates to subjects with PAH. The series can be described thus: Example 1 (ARIES-2) Phase III trial, disposition, safety and tolerability. The series is classed as in vivo. To be noted: for Subjects who died: 12 weeks. As for the experimental part: Change from Week 0 to Week 12 was determined.
Setting [1] is: male subjects, 2.5 mg once daily.

In the case of `COC(c1ccccc1)(c1ccccc1)[C@H](Oc1nc(C)cc(C)n1)C(=O)O` [ambrisentan], for the setting “2.5 mg once daily”, the “subjects who died during the study or within 30 days of the last dose” value is given as 3.1% and the Subjects who died is 2 (3.1) subjects (% of safety populati. Besides, where the note is “5 mg once daily”, the “subjects who died during the 12-week study” value was “No subjects” and the Subjects who died is reported as 0 (0.0) subjects (% of safety populati. The Subjects who died (combined 2.5 mg and 5 mg groups) is 2 (1.6) subjects (% of safety populati. Also, for the setting “in vivo”, the “male fertility hormones and serial semen samples” value is “did not suggest that ambrisentan was associated with an adverse effect on male reproductive potential”; the “mean changes from baseline at Week 12 for serum ALT and AST” value was “no notable mean changes”; the “mean total bilirubin and mean alkaline phosphatase” value is reported as “notable decrease”; the “subjects who developed elevated serum aminotransferase concentrations >3.0×ULN” value is recorded as “None”. For the same compound, under setting [1], the “change in testosterone concentration over the 12-week study” value was -0.09 ± 4.595 nmol/L and the “change over baseline in FSH concentration at Week 12” value is given as “+0.58 IU/liter”. For the same compound, the “change in testosterone concentration over the 12-week study” value (male subjects, 5 mg once daily) was -2.61 ± 6.962 nmol/L.
